Assay results as given in article PMC3726668, “A Characterization of the Manduca sexta Serotonin Receptors in the Context of Olfactory Neuromodulation” (PLoS ONE, 2013).

Assays:
Type in all cases: cell-based
Ms5HT1B receptor [1] = molecular target: T1, Ms5HT1B receptor (Manduca sexta, UniProt Q0GMY1); test: two-electrode voltage clamp, Xenopus oocytes, endogenous chloride current; settings: for activity at 3 µM: read-out: 5HT1B receptor
T1 construct: gene 5HT1B
T1 sequence (Q0GMY1 1-448): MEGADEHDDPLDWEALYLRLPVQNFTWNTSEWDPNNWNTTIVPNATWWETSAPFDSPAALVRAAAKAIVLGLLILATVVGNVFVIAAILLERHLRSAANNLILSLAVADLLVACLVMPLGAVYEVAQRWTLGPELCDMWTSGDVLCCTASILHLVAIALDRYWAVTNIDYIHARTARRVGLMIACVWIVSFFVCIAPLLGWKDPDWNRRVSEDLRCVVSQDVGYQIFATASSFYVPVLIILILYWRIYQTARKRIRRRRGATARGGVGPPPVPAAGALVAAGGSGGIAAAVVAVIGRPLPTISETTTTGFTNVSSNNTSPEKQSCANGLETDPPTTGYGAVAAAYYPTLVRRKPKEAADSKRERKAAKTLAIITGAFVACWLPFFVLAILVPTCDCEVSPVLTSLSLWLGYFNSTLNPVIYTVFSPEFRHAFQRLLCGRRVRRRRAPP
Source text: two-electrode voltage clamp, Xenopus oocytes, endogenous chloride current on Ms5HT1B receptor

Ms5HT7 receptor [2] = molecular target: T2, Ms5HT7 receptor (Manduca sexta, UniProt S4UQW2); test: as above; settings: 3 µM; partial agonist; relative to 1 µM 5-HT
T2 construct: gene 5HT7; Xenopus oocytes (pBS-MXT, receptor cRNA alone)
T2 sequence (S4UQW2 38-563): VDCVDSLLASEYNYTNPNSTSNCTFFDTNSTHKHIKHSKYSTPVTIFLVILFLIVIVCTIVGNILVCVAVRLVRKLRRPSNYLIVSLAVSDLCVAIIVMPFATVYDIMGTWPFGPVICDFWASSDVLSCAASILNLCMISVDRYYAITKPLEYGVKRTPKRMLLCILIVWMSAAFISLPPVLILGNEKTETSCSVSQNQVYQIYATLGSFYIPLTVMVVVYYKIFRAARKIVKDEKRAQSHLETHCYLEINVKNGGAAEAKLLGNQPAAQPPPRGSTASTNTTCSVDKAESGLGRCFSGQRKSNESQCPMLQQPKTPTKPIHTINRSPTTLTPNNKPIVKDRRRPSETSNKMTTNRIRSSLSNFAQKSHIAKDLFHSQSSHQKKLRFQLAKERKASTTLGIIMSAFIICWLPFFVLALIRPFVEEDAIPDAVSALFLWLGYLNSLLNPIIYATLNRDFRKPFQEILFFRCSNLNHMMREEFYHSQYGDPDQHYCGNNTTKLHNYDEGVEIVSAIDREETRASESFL
Source text: two-electrode voltage clamp, Xenopus oocytes, endogenous chloride current on Ms5HT7 receptor

Ms5HT7 receptor [3] = molecular target: T2, Ms5HT7 receptor; test: two-electrode voltage clamp, Xenopus oocytes, endogenous calcium-dependent chloride current
Ms5HT2 receptor = molecular target: T3, Ms5HT2 receptor (Manduca sexta, UniProt S4USL2); test: as above
T3 construct: gene 5HT2

Ms5HT1B receptor [4] = molecular target: T1, Ms5HT1B receptor; test: as above
Ms5HT1A receptor = molecular target: T4, Ms5HT1A receptor (Manduca sexta, UniProt Q0GMY2); test: two-electrode voltage clamp, Xenopus oocytes, CFTR current; settings: read-out: 5HT1A receptor
T4 construct: gene 5HT1A; about 51 kDa
T4 sequence (Q0GMY2 1-463): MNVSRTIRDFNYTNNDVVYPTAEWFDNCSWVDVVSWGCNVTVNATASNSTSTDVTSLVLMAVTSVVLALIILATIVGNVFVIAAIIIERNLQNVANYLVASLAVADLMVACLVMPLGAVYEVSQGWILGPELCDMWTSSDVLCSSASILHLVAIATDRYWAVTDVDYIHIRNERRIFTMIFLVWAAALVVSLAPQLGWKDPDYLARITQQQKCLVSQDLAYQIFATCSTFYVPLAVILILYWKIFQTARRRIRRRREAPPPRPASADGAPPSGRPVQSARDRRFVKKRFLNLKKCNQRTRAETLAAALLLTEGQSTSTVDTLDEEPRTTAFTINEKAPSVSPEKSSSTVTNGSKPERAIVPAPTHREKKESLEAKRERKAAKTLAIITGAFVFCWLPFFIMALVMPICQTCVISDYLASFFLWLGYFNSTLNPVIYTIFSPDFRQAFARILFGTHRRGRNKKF
Source text: two-electrode voltage clamp, Xenopus oocytes, CFTR current on Ms5HT1A receptor

T3 sequence (S4USL2 1-635): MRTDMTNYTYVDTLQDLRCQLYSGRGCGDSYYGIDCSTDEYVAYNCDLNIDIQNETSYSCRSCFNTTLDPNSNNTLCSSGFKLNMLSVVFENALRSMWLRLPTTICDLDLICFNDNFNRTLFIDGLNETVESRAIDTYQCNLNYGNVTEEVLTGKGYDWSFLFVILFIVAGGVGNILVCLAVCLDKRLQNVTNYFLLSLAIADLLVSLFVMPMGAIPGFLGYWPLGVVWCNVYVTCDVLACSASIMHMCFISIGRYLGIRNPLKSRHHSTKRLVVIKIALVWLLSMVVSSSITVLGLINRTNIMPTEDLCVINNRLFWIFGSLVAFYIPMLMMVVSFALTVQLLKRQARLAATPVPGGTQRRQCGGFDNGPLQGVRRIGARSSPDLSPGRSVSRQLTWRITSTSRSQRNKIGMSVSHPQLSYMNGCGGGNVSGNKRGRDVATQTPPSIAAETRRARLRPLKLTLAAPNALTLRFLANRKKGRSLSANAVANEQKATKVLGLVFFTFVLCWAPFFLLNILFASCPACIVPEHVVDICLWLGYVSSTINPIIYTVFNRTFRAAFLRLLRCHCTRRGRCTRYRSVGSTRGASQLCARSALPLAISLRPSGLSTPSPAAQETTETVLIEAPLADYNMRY

Q: How did the 5HT1B receptor (Ms5HT1B receptor [1]; agonist, relative to 1 µM 5-HT) turn out when `COc1ccc2[nH]cc(CCN)c2c1` [5-methoxytryptamine] was run?
A: 7.2 ± 1.4%

Q: With `CC[C@@H](CO)NC(=O)[C@@H]1C=C2c3cccc4c3c(cn4C)C[C@H]2N(C)C1` [methysergide] as the molecule, how does the Ms5HT7 (Ms5HT7 receptor [2]) read?
A: 49.5 ± 12%

Q: For `NCCc1c[nH]c2ccc(O)cc12` [serotonin], which EC50 (Ms5HT7 receptor [3]) is on record?
A: 10.5 nM

Q: And the EC50 (Ms5HT2 receptor)?
A: 25.4 nM

Q: What about the EC50 (Ms5HT1B receptor [4]) of the same molecule?
A: 57 nM

Q: With `CSc1ccc2c(c1)C(N1CCN(C)CC1)Cc1ccccc1S2` (centres unmarked) [methiothepin] as the molecule, how does the activity at 3 µM (Ms5HT1B receptor [1]) read?
A: 36.4 ± 12.6%

Q: With `COc1ccccc1N1CCN(CCN(C(=O)C2CCCCC2)c2ccccn2)CC1` [WAY100635] as the molecule, how does the activity at 3 µM (Ms5HT1B receptor [1]) read?
A: 38.2 ± 3.3%

Q: And the activity at 3 µM (Ms5HT1A receptor)?
A: 76.8 ± 15.8%
